Results from patent US10053447B2, “Fluorescent compounds” (Pierce Biotechnology, Inc, priority 2010, dated 2018).
One block for each compound: values may come before it.

Tests used:
U2OS cells; A550 cells = assay: Immunofluorescence cell based assays, summary statements; set-up: species or system human; settings: GAM and GAR conjugates
Experimental: The inventive compounds and commercial dye were evaluated for immunofluorescence in cell based assays using the following protocol. Plates containing U2OS cells (human osteosarcoma cell line) were fixed in 4% paraformaldehyde in PBS/0.1% Triton X-100 for 15 min at room temperature. The cells were then permeabilized with 2% BSA in PBS/0.1% Triton X-100 for 30 min at room temperature. Diluted primary antibodies in PBS/0.1% Triton X-100 were added to the plates and incubated overnight at 4° C. The plates were washed 3×100 μl with PBS. Based on the calculated protein concentrations, the conjugates were diluted to 4 μg/ml (1:250 from 1 mg/ml stock) in PBS/0.1% Triton X-100 and added to the plates (50 μl/well) and incubated 1 h in the dark at room temperature. The plates were washed 3×100 μl with PBS. One hundred μl of 2 μg/ml Hoechst dye in PBS was added per well. The plates were then scanned on an ArrayScan® Plate Reader for imaging and quantitation.
The inventive compounds and commercial dyes were evaluated for immunofluorescence in cell based assays using the following protocol. Plates containing A550 cells (adenocarcinoma human alveolar basal epithelial cells, P5, Sep. 23, 2010) and stored at −80° C. were placed at 50° C. for 30 min. The storage buffer (PBS) was removed and then the cells were permeabilized for 15 min (100 μl/well) with 0.1% Triton-X100 in 1×PBS buffer. The plates were blocked for 30 min in 2% BSA in 1×PBS-0.1% Triton-X100 and then incubated with primary antibodies diluted in 2% BSA in 1×PBS, 0.1% Trion-X100, overnight at 4° C. […] The remaining wells were incubated in blocking buffer only (no primary antibody). After overnight incubation, the antibody solution was removed from the wells, and the plates were washed with PBS-Tween (2×100 μl/well). The labeled secondary antibody conjugates, diluted to 4 μg/ml in PBS were added to corresponding wells and incubated for 1 h at room temperature (about 20° C. to about 22° C.). The plates were washed 3×100 μl/well with PBS and Hoechst stain diluted 1 μg/ml in PBS were added to each well (100 μl/well) of each plate. The plates were then scanned on the Thermo Scientific ArrayScan® HCS Reader for imaging and quantitation.

[1] = tested on: mouse IgG, rabbit IgG, biotinylated bovine serum albumin (BBSA); assay: Functional assay, summary over GAM, GAR and SA conjugates; type: binding; settings: compared with DyLight 549 or DyLight 649 conjugates
Experimental: Performance of the dye-GAM conjugates, dye-GAR conjugates, and dye-SA conjugates was evaluated in a functional assay. Wells of a 96 white opaque plate were coated with target proteins mouse IgG immunoglobulin, rabbit IgG immunoglobulin, or biotinylated bovine serum albumin (BBSA). One hundred μl mouse or rabbit IgG or BBSA at a concentration of 10 μg/ml was applied to the corresponding wells in columns 1 and 2. The target proteins were serially diluted 1:1 from the wells in columns 2 to 11 using 100 μl PBS. One hundred 100 μl of the samples from the wells in column 11 were discarded. One hundred μl PBS was added to the wells in column 12. The plates were incubated overnight at 4° C. and then blocked 2×200 μl with Thermo Scientific SuperBlock® Blocking Buffer. The coated plates were washed 2×200 μl with PBS-Tween and 1×200 μl with PBS. Conjugates diluted in PBS to 4 μg/ml were added to the corresponding plates (100 μl/well) and then incubated for 1 h in the dark. The plates were washed with 2×200 μl with PBS-Tween and 1×200 μl with PBS and filled with PBS buffer (100 μl/well) prior to scanning on Tecan Safire using 562 nmexcitation/576 nmemission to detect fluorescence intensity.
Performance of the dye-GAM conjugates and dye-GAR conjugates was evaluated in a functional assay. Wells of a 96 well white opaque plate were coated with mouse IgG, or rabbit IgG. One hundred μl mouse or rabbit IgG at a concentration of 10 μg/ml was applied to the corresponding wells in columns 1 and 2. The IgG proteins were serially diluted 1:1 from the wells in columns 2 to 11 using 100 μl PBS. One hundred 100 μl of the samples from the wells in column 11 were discarded. One hundred μl PBS was added to the wells in column 12. […] The plates were washed with 2×200 μl with PBS-Tween and 1×200 μl with PBS and filled with PBS buffer (100 μl/well) prior to scanning on Tecan Safire using the Alexa 647 setting (650 nmexcitation/665 nmemission) and the DyLight 649 setting (654 nmexcitation/673 nmemission to detect fluorescence intensity

[2] = Absorption profile and fluorescence intensity of the free dyes; type: physicochemical; settings: dyes compared with each other (FIG. 1, 25, 52)
[3] = Spectral properties of the dyes compared with commercially available dyes; type: physicochemical; settings: reactive ester form of the dye
[4] = Quantum yield (QY) measurement, Hamamatsu C9920 PL Absolute Quantum Yield Measurement System; type: physicochemical; settings: in PBS
Experimental: The quantum yield (QY) was determined at an excitation wavelength of 500 nm and 530 nm for inventive and commercial compounds, as shown below
QY measurements were performed in PBS using a Hamamatsu C9920 PL Absolute Quantum Yield Measurement System. The maximum absorbance at a 1 cm pathlength was set to 0.08. The lower values for the excitation at 530 nm was due to the rising emission which was not included in the counting because it was too close to the excitation light.
The quantum yield (QY) was determined at an excitation wavelength of 600 nm for inventive and commercial compounds, as shown below
QY measurements were performed in PBS using a Hamamatsu C9920 PL Absolute Quantum Yield Measurement System. The maximum absorbance at a 1 cm pathlength was set to 0.08.
The quantum yield (QY) was determined at an excitation wavelength of 710 nm for inventive and commercial compounds, as shown below.
QY measurements were performed in PBS using a Hamamatsu C9920 PL Absolute Quantum Yield Measurement System. The maximum absorbance at a 1 cm path length was set to 0.08.

[5] = Storage stability at 50° C. under argon; type: physicochemical
Experimental: (§1) The inventive compounds were evaluated for stability. All compounds were packed under argon in plastic vials. The vials sere sealed with a drying pad in an aluminium coated pouch, and then stored at 50° C. for seven days. The results of the stability study for selected compounds are shown below:
Purity was determined based on ester activity.
as §1, with “stability compared to commercial dyes.” for “stability.”, “argon as 1 mg portions” for “argon”, “14” for “seven”
The inventive compound 755 Compound 1 (isomer 1)-NHS was evaluated for stability. The compound was packed under argon in plastic vials. The vials sere sealed with a drying pad in an aluminium coated pouch, and then stored at 50° C. for 14 days. Purity was determined by HPLC before and after storage.

[6] = unit size 15 μg, 50° C. for seven days, purity based on ester activity, listed as 550 Compound 1(isomer 2)-NHS
[7] = unit size 50 μg, 50° C. for seven days, purity based on ester activity, listed as 550 Compound 1(isomer 2)-NHS
[8] = unit size 15 μg, 50° C. for seven days, purity based on ester activity, listed as 550 Compound 1(isomer 1)-NHS
[9] = unit size 50 μg, 50° C. for seven days, purity based on ester activity, listed as 550 Compound 1(isomer 1)-NHS
[10] = unit size 1 mg, 50° C. for seven days, purity based on ester activity
[11] = listed as 550 Compound 1(isomer 1)-NHS
[12] = unit size 15 μg, 50° C. for 14 days, purity by HPLC
[13] = unit size 50 μg, 50° C. for 14 days, purity by HPLC
[14] = unit size 60 μg, 50° C. for 14 days, purity by HPLC
[15] = unit size 1 mg, 50° C. for 14 days, purity by HPLC

Compound: COCCOCCOCC[N+]1=C(/C=C/C=C/C=C2/N(CCCCCC(=O)O)c3ccc(S(=O)(=O)O)cc3C2(C)CCCS(=O)(=O)O)C(C)(CCCS(=O)(=O)O)c2cc(S(=O)(=O)O)ccc21.[Na+].[Na+].[Na+] (stereo not shown) [650 Compound 3, 2-{(1E,3E)-5-[1-(5-carboxypentyl)-3-methyl-5-sulfo-3-(3-sulfopropyl)-1,3-dihydro-indol-(2E)-ylidene]-penta-1,3-dienyl}-1-{2-[2-(2-methoxy-ethoxy)-ethoxy]-ethyl}-3-methyl-5-sulfo-3-(3-sulfopropyl)-3H-indolium tri sodium salt]
Immunofluorescence performance of conjugates compared with commercial DyLight dye (U2OS cells; A550 cells): at least similar performance to DyLight 649 conjugates (GAM, GAR), and in some cases superior performance
Performance of conjugates (GAM, GAR, SA) in the functional assay in terms of signal-to-noise [1]: superior to DyLight 649 conjugates

Absorption profile [2]: very similar profiles
Emission (Em) [3]: 776 nm
Excitation (Ex) [3]: 754 nm
ε [3]: 220,000 M−1cm−1
QY with excitation at 710 nm [4]: 0.110
Compound: COCCN1/C(=C/C=C/C=C/C=C/C2=[N+](CCCCCC(=O)ON3C(=O)CCC3=O)c3ccc(S(=O)(=O)[O-])cc3C2(C)CCCS(=O)(=O)O)C(C)(CCCS(=O)(=O)O)c2cc(S(=O)(=O)O)ccc21 (single isomer, unassigned) [755 Compound 1 (isomer 2)-NHS]

Purity at day 1 [5, 6]: 96%
Purity at day 7 [5, 6]: 94%
Purity at day 1 [5, 7]: 96%
Purity at day 7 [5, 7]: 95%
Absorption profile [2]: very similar profiles
QY excitation at 500 nm [4]: 0.096
QY excitation at 530 nm [4]: 0.090
Compound: COCCN1/C(=C/C=C/C2=[N+](CCCCCC(=O)ON3C(=O)CCC3=O)c3ccc(S(=O)(=O)[O-])cc3C2(C)CCCS(=O)(=O)O)C(C)(CCCS(=O)(=O)O)c2cc(S(=O)(=O)O)ccc21 (single isomer, unassigned) [550 Compound 1 (isomer 2)-NHS]

Compound: COCCOCC[N+]1=C(/C=C/C=C/C=C2/N(CCCCCC(=O)O)c3ccc(S(=O)(=O)O)cc3C2(C)CCCS(=O)(=O)O)C(C)(CCCS(=O)(=O)O)c2cc(S(=O)(=O)O)ccc21.[Na+].[Na+].[Na+] (stereo not shown) [650 Compound 2, 2-{(1E,3E)-5-[1-(5-carboxypentyl)-3-methyl-5-sulfo-3-(3-sulfopropyl)-1,3-dihydroindol-(2E)-ylidene]-penta-1,3-dienyl}-1-[2-(2-methoxy-ethoxy)-ethyl]-3-methyl-5-sulfo-3-(3-sulfopropyl)-3H-indolium tri sodium salt]
Immunofluorescence performance of conjugates compared with commercial DyLight dye (U2OS cells; A550 cells): at least similar performance to DyLight 649 conjugates (GAM, GAR), and in some cases superior performance
Performance of conjugates (GAM, GAR, SA) in the functional assay in terms of signal-to-noise [1]: superior to DyLight 649 conjugates

Purity at day 1 [5, 8]: 95%
Purity at day 7 [5, 8]: 91%
Purity at day 1 [5, 9]: 95%
Purity at day 7 [5, 9]: 91%
Purity at day 1 [5, 10]: 96%
Purity at day 7 [5, 10]: 93%
Absorption profile [2]: very similar profiles
QY excitation at 500 nm [4, 11]: 0.105
QY excitation at 530 nm [4, 11]: 0.098
Compound: COCCN1/C(=C/C=C/C2=[N+](CCCCCC(=O)ON3C(=O)CCC3=O)c3ccc(S(=O)(=O)[O-])cc3C2(C)CCCS(=O)(=O)O)C(C)(CCCS(=O)(=O)O)c2cc(S(=O)(=O)O)ccc21 (single isomer, unassigned) [550 Compound 1 (isomer 1)-NHS]

Purity at day 1 [5, 12]: 99%
Purity at day 14 [5, 12]: 96%
Purity at day 1 [5, 13]: 99%
Purity at day 14 [5, 13]: 97%
Purity at day 1 [5, 14]: 99%
Purity at day 14 [5, 14]: 97%
Purity at day 1 [5, 15]: 99%
Purity at day 14 [5, 15]: 98%
Absorption profile [2]: very similar profiles
Emission (Em) [3]: 776 nm
Excitation (Ex) [3]: 754 nm
ε [3]: 220,000 M−1cm−1
QY with excitation at 710 nm [4]: 0.119
Compound: COCCN1/C(=C/C=C/C=C/C=C/C2=[N+](CCCCCC(=O)ON3C(=O)CCC3=O)c3ccc(S(=O)(=O)[O-])cc3C2(C)CCCS(=O)(=O)O)C(C)(CCCS(=O)(=O)O)c2cc(S(=O)(=O)O)ccc21 (single isomer, unassigned) [755 Compound 1 (isomer 1)-NHS]

Compound: COCC[N+]1=C(/C=C/C=C/C=C2/N(CCCCCC(=O)O)c3ccc(S(=O)(=O)O)cc3C2(C)CCCS(=O)(=O)O)C(C)(CCCS(=O)(=O)O)c2cc(S(=O)(=O)O)ccc21.[Na+].[Na+].[Na+] (stereo not shown) [650 Compound 1, 2-{(1E,3E)-5-[1-(5-Carboxypentyl)-3-methyl-5-sulfo-3-(3-sulfopropyl)-1,3-dihydro-indol-(2E)-ylidene]-penta-1,3-dienyl}-1-(2-methoxy-ethyl)-3-methyl-5-sulfo-3-(3-sulfopropyl)-3H-indolium tri sodium salt]
Immunofluorescence performance of conjugates compared with commercial DyLight dye (U2OS cells; A550 cells; tri sodium salt): at least similar performance to DyLight 649 conjugates (GAM, GAR), and in some cases superior performance
Performance of conjugates (GAM, GAR, SA) in the functional assay in terms of signal-to-noise [1]: superior to DyLight 649 conjugates
